# Reference: patent US8067189B2, “Methods for determining sensitivity to vascular endothelial growth factor receptor-2 modulators by measuring the level of collagen type IV” (Bristol-Myers Squibb Company, priority 2005, dated 2011)
# Experiments:
# Collagen type IV = Collagen type IV ELISA of blood (plasma) from cancer patients, clinical study CA182-002; assay type: in vivo, human
# Protocol: (§1) Blood samples (plasma) for ELISA analysis were obtained from Bristol-Myers Squibb Co. sponsored clinical study CA182-002, which is a phase I dose escalation study to determine the safety, pharmacokinetic, and pharmacodynamics of the example VEGFR-2 inhibitor in patients with advanced or metastatic solid tumors. Blood samples were drawn from patients at screening, pre-dose, and post-dose at 4 hours, Day 1, Day 8, Day 26, and end of treatment. Approximately 60 ml of blood was collected for the protocol specific sampling. Detailed instructions regarding the collection, processing, labeling, handling, storage, and shipment of the specimens were provided in the CA182-002 Laboratory Manual.
# An ELISA method for the detection and measurement of Collagen Type IV and VE-Cadherin on human plasma or any biological sample where the proteins must be detected and measured is described. For collagen type IV ELISA, the kit was provided by Kamiya biomedical company (cat no. KT-035) and the principle method of the assay, a solid phase one-step sandwich ELISA, was as follows. Collagen Type IV in the sample was bound simultaneously by a solid phase monoclonal antibody and a monoclonal antibody-enzyme conjugate, each directed at a different antigenic site. […] After removing unbound enzyme-labeled antibody and samples, the plate was incubated with the enzyme substrate 3,3′,5,5′-tetramethylhylbenzidine (TMB). The resultant color development was directly proportional to the amount of collagen IV in the sample. The reaction was terminated by addition of acid and absorbance was measured at 450 nm. A standard curve was prepared from collagen type IV standard dilutions and collagen type IV samples concentration determined. For VE-Cadherin ELISA, the kit provided by Bender Medsystems (cat no. BMS253) was used and the principle method of the assay was as follows. An anti-VE-cadherin coating antibody was adsorbed onto the microwells. VE-cadherin present in the sample bound to antibodies adsorbed to the microwells; a biotin conjugated anti-VE-cadherin antibody was added and bound to VE-cadherin captured by the first antibody. Following incubation, unbound biotin conjugated anti-VE-cadherin was removed during a wash step. Streptavidin-HRP was added and bound to the biotin conjugated anti-VE-cadherin. Following incubation, unbound streptavidin-HRP was removed during a wash step and substrate solution reactive with HRP was added to the wells. A colored product was formed in proportion to the amount of VE-cadherin present in the sample. The reaction was terminated by addition of acid and absorbance was measured at 450 nm. A standard curve was prepared from VE-cadherin standard dilutions and VE-cadherin samples concentration determined.
# Based on the pre-clinical studies, the Collagen type IV ELISA kit was examined as a potential molecular assay to monitor response and validate its expression on specimens obtained from cancer patients who received the example VEGFR-2 inhibitor. Biological samples from twelve cancer patients treated with the example VEGFR-2 inhibitor in protocol CA182002, which is a single agent dose escalation study, three patients each at 180 mg/day, 320 mg/day, 600 mg/day and 800 mg/day, were examined. Collagen Type IV blood levels were determined by an ELISA based assay for each patient at Day 0 (before therapy) and at Day 26 (after treatment). Collagen type IV levels increased on average by 24% at Day 26 in the 180 mg/day cohort; it increased on average only by 7% at Day 26 in the 320 mg/day cohort. In the 600 mg/day cohort, it was reduced on average by 26% at Day 26. In the 800 mg/day cohort, it was reduced only marginally, when compared to the 600 mg/day cohort, by 29% at Day 26.
# Collagen type IV ELISA assays were also examined to see if collagen type IV was useful as a biomarker for clinical response to the example VEGFR-2 inhibitor. […] The reduction in collagen type IV blood levels correlated with clinical evidence of anti-tumor activity. […]
# [1] = tested on: advanced or metastatic solid tumors; assay: Clinical response in phase I dose escalation study CA182-002; assay type: in vivo, human; conditions: 600 mg/day
# Protocol: as §1
# Collagen type IV ELISA assays were also examined to see if collagen type IV was useful as a biomarker for clinical response to the example VEGFR-2 inhibitor. […] The reduction in collagen type IV blood levels correlated with clinical evidence of anti-tumor activity. […] Overall, the clinical results from these two evaluable patients confirm the pre-clinical data and indicate that collagen type IV ELISA assay is a clinically useful method to monitor response to a VEGFR-2 modulator(s) such as the example VEGFR-2 inhibitor.
smiles,measurement,setting,value
"Cc1cc2c(F)c(Oc3ncnn4cc(OC[C@@H](C)OC(=O)[C@H](C)N)c(C)c34)ccc2[nH]1 [example VEGFR-2 inhibitor, [(1R),2S]-2-Aminopropionic acid 2-[4-(4-fluoro-2-methyl-1H-indol-5-yloxy)-5-methylpyrrolo[2,1-f][1,2,4]triazin-6-yloxy]-1-methylethyl ester]",Collagen type IV levels increased on average by,"Collagen type IV; 180 mg/day cohort, three patients, Day 26 vs Day 0",24%
same,Collagen type IV levels increased on average by,"Collagen type IV; 320 mg/day cohort, three patients, Day 26 vs Day 0",7%
same,Collagen type IV levels reduced on average by,"Collagen type IV; 600 mg/day cohort, three patients, Day 26 vs Day 0",26%
same,Collagen type IV levels reduced by,"Collagen type IV; 800 mg/day cohort, three patients, Day 26 vs Day 0",29%
same,reduction in collagen type IV levels,"Collagen type IV; another patient, 600 mg/day, between Day 0 and Day 26, P=0.632",no significant reduction
same,collagen type IV blood levels reduced,"Collagen type IV; one patient with ampulla of vater carcinoma, 600 mg/day, between Day 0 and Day 26, P=0.006",> 50%
same,clinical response,[1]; another patient,did not achieve a clinical response
same,time patient was on therapy,"[1]; another patient, no clinical response",32 days
same,clinical response,[1]; one patient with ampulla of vater carcinoma,partial response
same,time patient remained on therapy,"[1]; one patient with ampulla of vater carcinoma, partial response",126 days
